Data taken from US11034650B2, “Compounds useful for treating a Mannheimia haemolytica or Histophilus somni infection” (Intervet Inc., priority 2016, dated 2021).
Converted amounts (≈) assume the structure as drawn.

Columns and labels:
Format in all cases: cell-based
[1] = system: Pasteurella multocida PM 12080 (IV102277-0093, BRD field isolate); assay: MIC, broth-microdilution (CLSI VET01-A4), strain PM 12080; conditions: Pasteurella multocida strain PM 12080, broth-microdilution; unit assumed
Method: (§1) For example, representative compounds were tested against ***, Mannheimia haemolytica and Pasteurella multocida, using the conventional broth-dilution assay.
(§2) The Minimum inhibitory concentrations (MIC) of compounds according to the invention for a number of veterinary bacterial pathogens were determined by the broth-microdilution method according to CLSI document VET01-A4.
(§3) Microdilution trays containing a doubling dilution series of the test compound were used for the tests. The MIC results were interpreted according to the CLSI documents VET01-S3. The lowest concentration of compound at which no visible growth (i.e. no turbidity) detected by the unaided eye was recorded as the MIC.

[2] = system: Mannheimia haemolytica MH 6374 (ATCC 33396, reference strain); assay: MIC, broth-microdilution (CLSI VET01-A4), strain MH 6374; conditions: Mannheimia haemolytica strain MH 6374, broth-microdilution; unit assumed
Method: as §1, §2, §3

[3] = system: Mannheimia haemolytica MH 6357 (M7/2, reference strain, cattle infection strain); assay: MIC, broth-microdilution (CLSI VET01-A4), strain MH 6357; conditions: Mannheimia haemolytica strain MH 6357, broth-microdilution; unit assumed
Method: as §1, §2, §3

[4] = system: Pasteurella multocida PM 6267 (P 2225 (L386), reference strain, mouse infection strain); assay: MIC, broth-microdilution (CLSI VET01-A4), strain PM 6267; conditions: Pasteurella multocida strain PM 6267, broth-microdilution; unit assumed
Method: as §1, §2, §3

[5] = system: Mannheimia haemolytica MH 13065 (XB0446-6003.9, BRD field isolate); assay: MIC, broth-microdilution (CLSI VET01-A4), strain MH 13065; conditions: Mannheimia haemolytica strain MH 13065, broth-microdilution; unit assumed
Method: as §1, §2, §3

[6] = system: Pasteurella multocida PM 10775 (080130003051, BRD field isolate); assay: MIC, broth-microdilution (CLSI VET01-A4), strain PM 10775; conditions: Pasteurella multocida strain PM 10775, broth-microdilution; unit assumed
Method: as §1, §2, §3

[7] = system: Mannheimia haemolytica MH 13093 (XB0472-6014.1, BRD field isolate); assay: MIC, broth-microdilution (CLSI VET01-A4), strain MH 13093; conditions: Mannheimia haemolytica strain MH 13093, broth-microdilution; unit assumed
Method: as §1, §2, §3

[8] = system: Mannheimia haemolytica MH 10720 (154, BRD field isolate); assay: MIC, broth-microdilution (CLSI VET01-A4), strain MH 10720; conditions: Mannheimia haemolytica strain MH 10720, broth-microdilution; unit assumed
Method: as §1, §2, §3

[9] = system: Mannheimia haemolytica MH 12587 (1071, BRD field isolate, macrolide-resistance: erm+, E+); assay: MIC, broth-microdilution (CLSI VET01-A4), strain MH 12587; conditions: Mannheimia haemolytica strain MH 12587, broth-microdilution; unit assumed
Method: as §1, §2, §3

SMILES	MIC PM 12080 [1] [µg/mL]	MIC PM 6267 [4] [µg/mL]	MIC PM 10775 [6] [µg/mL]	MIC MH 6374 [2] [µg/mL]	MIC MH 6357 [3] [µg/mL]	MIC MH 13065 [5] [µg/mL]	MIC MH 13093 [7] [µg/mL]	MIC MH 10720 [8] [µg/mL]	MIC MH 12587 [9] [µg/mL]
C=CCNCc1cccc(C#Cc2ccc(C(=O)N[C@H](C(=O)NO)[C@@H](C)CC)cc2)c1 [Compound 49]	12.5 (≈ 29.8 µM)	3.1 (≈ 7.39 µM)	0.8 (≈ 1.91 µM)	12.5 (≈ 29.8 µM)	12.5 (≈ 29.8 µM)	12.5 (≈ 29.8 µM)	12.5 (≈ 29.8 µM)	6.3 (≈ 15 µM)	25 (≈ 59.6 µM)
CC[C@H](C)[C@H](NC(=O)c1ccc(C#Cc2ccc(CNC3CC3)cc2)cc1)C(=O)NO [Compound 112]	0.2 (≈ 0.477 µM)	≤ 0.1	≤ 0.1	0.4 (≈ 0.953 µM)	1.6 (≈ 3.81 µM)	0.4 (≈ 0.953 µM)	0.4 (≈ 0.953 µM)	≤ 0.1	0.8 (≈ 1.91 µM)
CC[C@H](C)[C@H](NC(=O)c1ccc(C#Cc2ccc(CNCC(C)(C)C)cc2)cc1)C(=O)NO [Compound 114]	0.8 (≈ 1.78 µM)	0.2 (≈ 0.445 µM)	≤ 0.1	12.5 (≈ 27.8 µM)	6.3 (≈ 14 µM)	6.3 (≈ 14 µM)	6.3 (≈ 14 µM)	1.6 (≈ 3.56 µM)	12.5 (≈ 27.8 µM)
O=C(N[C@@H](CO)C(=O)NO)c1ccc(C#Cc2ccc(CN3CCS(=O)(=O)CC3)cc2)cc1 [Compound 78]	0.8 (≈ 1.7 µM)	≤ 0.1	≤ 0.1	6.3 (≈ 13.4 µM)	6.3 (≈ 13.4 µM)	6.3 (≈ 13.4 µM)	6.3 (≈ 13.4 µM)	3.1 (≈ 6.57 µM)	12.5 (≈ 26.5 µM)
O=C(N[C@@H](CO)C(=O)NO)c1ccc(C#Cc2ccc(CN3CCN(c4ccccn4)CC3)cc2)cc1 [Compound 82]	0.8 (≈ 1.6 µM)	≤ 0.1	≤ 0.1	0.8 (≈ 1.6 µM)	1.6 (≈ 3.2 µM)	6.3 (≈ 12.6 µM)	3.1 (≈ 6.21 µM)	0.4 (≈ 0.801 µM)	3.1 (≈ 6.21 µM)
CC[C@H](C)[C@H](NC(=O)c1ccc(C#Cc2ccc(CN(CC)CC)cc2)cc1)C(=O)NO [Compound 118]	1.6 (≈ 3.67 µM)	0.4 (≈ 0.918 µM)	0.2 (≈ 0.459 µM)	12.5 (≈ 28.7 µM)	6.3 (≈ 14.5 µM)	12.5 (≈ 28.7 µM)	12.5 (≈ 28.7 µM)	3.1 (≈ 7.12 µM)	25 (≈ 57.4 µM)
CC(C)[C@H](NC(=O)c1ccc(C#Cc2ccc(CN3CCN(c4ccccc4)CC3)cc2)cc1)C(=O)NO [Compound 135]	0.8 (≈ 1.57 µM)	0.8 (≈ 1.57 µM)	≤ 0.1	6.3 (≈ 12.3 µM)	3.1 (≈ 6.07 µM)	25 (≈ 49 µM)	25 (≈ 49 µM)	0.8 (≈ 1.57 µM)	1 (≈ 1.96 µM)
CC(C)[C@H](NC(=O)c1ccc(C#Cc2ccc(CN3CCCOCC3)cc2)cc1)C(=O)NO [Compound 202]	≤ 0.1	≤ 0.1	≤ 0.1	3.1 (≈ 6.9 µM)	0.8 (≈ 1.78 µM)	1.6 (≈ 3.56 µM)	1.6 (≈ 3.56 µM)	0.2 (≈ 0.445 µM)	3.1 (≈ 6.9 µM)
CC[C@H](C)[C@H](NC(=O)c1ccc(C#Cc2ccc(CNCc3nccs3)cc2)cc1)C(=O)NO [Compound 188]	≤ 0.1	≤ 0.1	≤ 0.1	1.6 (≈ 3.36 µM)	0.8 (≈ 1.68 µM)	0.8 (≈ 1.68 µM)	0.8 (≈ 1.68 µM)	≤ 0.1	3.1 (≈ 6.5 µM)
COc1cc2c(cc1OC)CN(Cc1ccc(C#Cc3ccc(C(=O)N[C@@H](CO)C(=O)NO)cc3)cc1)CC2 [Compound 84]	0.4 (≈ 0.755 µM)	≤ 0.1	≤ 0.1	3.1 (≈ 5.85 µM)	3.1 (≈ 5.85 µM)	3.1 (≈ 5.85 µM)	3.1 (≈ 5.85 µM)	0.8 (≈ 1.51 µM)	3.1 (≈ 5.85 µM)
CC[C@H](C)[C@H](NC(=O)c1ccc(C#Cc2ccc(CNCCOC)cc2)cc1)C(=O)NO [Compound 115]	1.6 (≈ 3.66 µM)	0.4 (≈ 0.914 µM)	≤ 0.1	1.6 (≈ 3.66 µM)	6.3 (≈ 14.4 µM)	3.1 (≈ 7.09 µM)	3.1 (≈ 7.09 µM)	0.8 (≈ 1.83 µM)	6.3 (≈ 14.4 µM)
COc1ccc(CNCc2cccc(C#Cc3ccc(C(=O)N[C@H](C(=O)NO)C(C)C)cc3)c2)cc1 [Compound 43]	3.1 (≈ 6.38 µM)	3.1 (≈ 6.38 µM)	0.4 (≈ 0.824 µM)	6.3 (≈ 13 µM)	6.3 (≈ 13 µM)	6.3 (≈ 13 µM)	12.5 (≈ 25.7 µM)	1.6 (≈ 3.3 µM)	12.5 (≈ 25.7 µM)
COCCNCc1ccc(C#Cc2ccc(C(=O)N[C@H](C(=O)NO)C(C)C)cc2)cc1 [Compound 96]	0.8 (≈ 1.89 µM)	0.2 (≈ 0.472 µM)	≤ 0.1	0.8 (≈ 1.89 µM)	3.1 (≈ 7.32 µM)	1.6 (≈ 3.78 µM)	3.1 (≈ 7.32 µM)	0.8 (≈ 1.89 µM)	12.5 (≈ 29.5 µM)
CC(C)NCc1ccc(C#Cc2ccc(C(=O)N[C@H](C(=O)NO)C(C)C)cc2)cc1 [Compound 93]	1.6 (≈ 3.93 µM)	≤ 0.1	≤ 0.1	6.3 (≈ 15.5 µM)	6.3 (≈ 15.5 µM)	6.3 (≈ 15.5 µM)	12.5 (≈ 30.7 µM)	3.1 (≈ 7.61 µM)	12.5 (≈ 30.7 µM)

Second part, led by results:

MIC PM 12080 [1] [µg/mL]	MIC PM 6267 [4] [µg/mL]	MIC PM 10775 [6] [µg/mL]	SMILES	MIC MH 6374 [2] [µg/mL]	MIC MH 6357 [3] [µg/mL]	MIC MH 13065 [5] [µg/mL]	MIC MH 13093 [7] [µg/mL]	MIC MH 10720 [8] [µg/mL]	MIC MH 12587 [9] [µg/mL]
1.6 (≈ 3.31 µM)	1.6 (≈ 3.31 µM)	0.4 (≈ 0.827 µM)	CC[C@H](C)[C@H](NC(=O)c1ccc(C#Cc2ccc(CN(C)Cc3ccccc3)cc2)cc1)C(=O)NO [Compound 127]	6.3 (≈ 13 µM)	3.1 (≈ 6.41 µM)	6.3 (≈ 13 µM)	12.5 (≈ 25.8 µM)	1.6 (≈ 3.31 µM)	25 (≈ 51.7 µM)
1.6 (≈ 3.35 µM)	0.2 (≈ 0.418 µM)	≤ 0.1	O=C(N[C@@H](CO)C(=O)NO)c1ccc(C#Cc2ccc(CNCc3ccc(Cl)cc3)cc2)cc1 [Compound 87]	0.8 (≈ 1.67 µM)	3.1 (≈ 6.49 µM)	3.1 (≈ 6.49 µM)	3.1 (≈ 6.49 µM)	1.6 (≈ 3.35 µM)	6.3 (≈ 13.2 µM)
0.8 (≈ 1.7 µM)	0.2 (≈ 0.426 µM)	≤ 0.1	CC(C)[C@H](NC(=O)c1ccc(C#Cc2ccc(CN(C)Cc3ccccc3)cc2)cc1)C(=O)NO [Compound 105]	3.1 (≈ 6.6 µM)	6.3 (≈ 13.4 µM)	3.1 (≈ 6.6 µM)	3.1 (≈ 6.6 µM)	0.8 (≈ 1.7 µM)	6.3 (≈ 13.4 µM)
0.8 (≈ 1.7 µM)	≤ 0.1	≤ 0.1	O=C(N[C@@H](CO)C(=O)NO)c1ccc(C#Cc2ccc(CN3CCc4ccccc4C3)cc2)cc1 [Compound 83]	0.8 (≈ 1.7 µM)	25 (≈ 53.2 µM)	0.8 (≈ 1.7 µM)	1.6 (≈ 3.41 µM)	0.4 (≈ 0.852 µM)	1.6 (≈ 3.41 µM)
0.8 (≈ 1.75 µM)	≤ 0.1	≤ 0.1	CN(Cc1ccccc1)Cc1ccc(C#Cc2ccc(C(=O)N[C@@H](CO)C(=O)NO)cc2)cc1 [Compound 86]	0.8 (≈ 1.75 µM)	1.6 (≈ 3.5 µM)	1.6 (≈ 3.5 µM)	3.1 (≈ 6.78 µM)	0.4 (≈ 0.874 µM)	3.1 (≈ 6.78 µM)
1.6 (≈ 3.39 µM)	0.4 (≈ 0.848 µM)	≤ 0.1	Cc1ccc(CNCc2ccc(C#Cc3ccc(C(=O)N[C@@H](CO)C(=O)NO)cc3)cc2)cc1C [Compound 91]	3.1 (≈ 6.57 µM)	6.3 (≈ 13.4 µM)	6.3 (≈ 13.4 µM)	12.5 (≈ 26.5 µM)	1.6 (≈ 3.39 µM)	12.5 (≈ 26.5 µM)
0.8 (≈ 1.6 µM)	≤ 0.1	≤ 0.1	O=C(N[C@@H](CO)C(=O)NO)c1ccc(C#Cc2ccc(CN3CCN(c4ccccc4)CC3)cc2)cc1 [Compound 81]	3.1 (≈ 6.22 µM)	3.1 (≈ 6.22 µM)	3.1 (≈ 6.22 µM)	6.3 (≈ 12.6 µM)	0.8 (≈ 1.6 µM)	25 (≈ 50.1 µM)
1.6 (≈ 4.07 µM)	0.4 (≈ 1.02 µM)	≤ 0.1	C=CCNCc1ccc(C#Cc2ccc(C(=O)N[C@@H](CO)C(=O)NO)cc2)cc1 [Compound 73]	3.1 (≈ 7.88 µM)	3.1 (≈ 7.88 µM)	3.1 (≈ 7.88 µM)	3.1 (≈ 7.88 µM)	3.1 (≈ 7.88 µM)	6.3 (≈ 16 µM)
3.1 (≈ 7.53 µM)	0.8 (≈ 1.94 µM)	≤ 0.1	COCCNCc1ccc(C#Cc2ccc(C(=O)N[C@@H](CO)C(=O)NO)cc2)cc1 [Compound 74]	3.1 (≈ 7.53 µM)	3.1 (≈ 7.53 µM)	6.3 (≈ 15.3 µM)	12.5 (≈ 30.4 µM)	3.1 (≈ 7.53 µM)	12.5 (≈ 30.4 µM)
